Reference: ChEMBL document CHEMBL4602640, “Licochalcone A suppresses the proliferation of sarcoma HT-1080 cells, as a selective R132C mutant IDH1 inhibitor” (Bioorg Med Chem Lett, 2020)
Active and inactive are the calls of the source. The rule behind the calls is not given here.

Tests used:
HT-1080 [1] = assay: Reduction in PDHB […] expression in human HT1080 cells by RNA-Seq data analysis; assay type: functional, cell-based
[2] = biological target: T1, Isocitrate dehydrogenase [NADP] cytoplasmic (Homo sapiens, UniProt O75874, R132C); assay: Binding affinity to IDH1 R132C mutant (unknown origin) by surface plasmon resonance assay
HT-1080 [3] = assay: Induction of apoptosis in human HT1080 cells assessed as late apoptotic cells at 10 uM incubated for 48 hrs by flow cytometric analysis (reference value: 2.48%); assay type: functional
[4] = Cytotoxicity against human RCTEC incubated for 48 hrs
HT-1080 [5] = assay: Induction of cell cycle arrest in human HT1080 cells assessed accumulation at S phase at 10 uM incubated for 24 hrs by flow cytometric analysis (reference value: 52.69%); assay type: functional
HT-1080 [6] = assay: Reduction in ACO1 […] expression in human HT1080 cells by RNA-Seq data analysis; assay type: functional, cell-based
HT-1080 [7] = assay: Induction of apoptosis in human HT1080 cells assessed as late apoptotic cells at 20 uM incubated for 48 hrs by flow cytometric analysis (reference value: 2.48%); assay type: functional
[8] = biological target: T2, Isocitrate dehydrogenase [NADP] cytoplasmic (Homo sapiens, UniProt O75874, R132H); assay: Binding affinity to IDH1 R132H mutant (unknown origin) by surface plasmon resonance assay
[9] = biological target: T3, Isocitrate dehydrogenase [NADP] cytoplasmic (Homo sapiens, UniProt O75874); assay: Binding affinity to IDH1 (unknown origin) by surface plasmon resonance assay
HT-1080 [10] = assay: Induction of apoptosis in human HT1080 cells assessed as viable cells at 20 uM incubated for 48 hrs by flow cytometric analysis (reference value: 95.9%); assay type: functional; conditions: HT-1080, 48 h, read-out: Activity
HT-1080 [11] = assay: Reduction in 2 HG level in human HT1080 cells harboring IDH1-R132C mutation incubated for 48 hrs by LC-MS analysis relative to control; assay type: functional
HT-1080 [12] = assay: Induction of apoptosis in human HT1080 cells assessed as early apoptotic cells at 10 uM incubated for 48 hrs by flow cytometric analysis (reference value: 0.63%); assay type: functional
HT-1080 [13] = assay: Induction of cell cycle arrest in human HT1080 cells assessed accumulation at G2 phase incubated for 24 hrs by flow cytometric analysis; assay type: functional, cell-based
Homo sapiens = species: Homo sapiens; assay: Ratio of inhibition of IDH1 R132C mutant (unknown origin) at 30 uM to inhibition of IDH1 (unknown origin) at 30 uM by enzymatic assay
HT-1080 [14] = assay: Induction of apoptosis in human HT1080 cells assessed as necrotic cells at 20 uM incubated for 48 hrs by flow cytometric analysis (reference value: 0.95%); assay type: functional
HT-1080 [15] = assay: Induction of cell cycle arrest in human HT1080 cells assessed accumulation at G2 phase at 20 uM incubated for 24 hrs by flow cytometric analysis (reference value: 15.64%); assay type: functional
HT-1080 [16] = assay: Induction of apoptosis in human HT1080 cells assessed as viable cells at 10 uM incubated for 48 hrs by flow cytometric analysis (reference value: 95.9%); assay type: functional; conditions: HT-1080, 48 h, read-out: Activity
U-87 MG = assay: Cytotoxicity against human U87MG cells harboring wild type IDH1 incubated for 48 hrs; assay type: functional, cell-based, U-87MG ATCC
[17] = biological target: T2, Isocitrate dehydrogenase [NADP] cytoplasmic; assay: Inhibition of IDH1 R132H mutant (unknown origin) by enzymatic assay
HT-1080 [18] = assay: Induction of cell cycle arrest in human HT1080 cells assessed accumulation at G2 phase at 10 uM incubated for 24 hrs by flow cytometric analysis (reference value: 15.64%); assay type: functional
HT-1080 [19] = assay: Induction of cell cycle arrest in human HT1080 cells assessed accumulation at S phase at 20 uM incubated for 24 hrs by flow cytometric analysis (reference value: 52.69%); assay type: functional
HT-1080 [20] = assay: Induction of apoptosis in human HT1080 cells assessed as early apoptotic cells at 20 uM incubated for 48 hrs by flow cytometric analysis (reference value: 0.63%); assay type: functional
HT-1080 [21] = assay: Induction of cell cycle arrest in human HT1080 cells assessed accumulation at G1 phase at 20 uM incubated for 24 hrs by flow cytometric analysis (reference value: 31.67%); assay type: functional
[22] = system: Isocitrate dehydrogenase [NADP] cytoplasmic (Homo sapiens), O75874 [R132H]; assay: Binding affinity to IDH1 R132H mutant (unknown origin) by mass spectrometry
[23] = biological target: T1, Isocitrate dehydrogenase [NADP] cytoplasmic; assay: Inhibition of IDH1 R132C mutant (unknown origin) by enzymatic assay
HT-1080 [24] = assay: Reduction in CDK2 mRNA level in human HT1080 cells incubated for 48 hrs by qRT-PCR analysis; assay type: functional, cell-based
HT-1080 [25] = assay: Reduction in CDK1 mRNA level in human HT1080 cells incubated for 48 hrs by qRT-PCR analysis; assay type: functional, cell-based
HT-1080 [26] = assay: Induction of cell cycle arrest in human HT1080 cells assessed accumulation at G1 phase at 5 uM incubated for 24 hrs by flow cytometric analysis (reference value: 31.67%); assay type: functional
HT-1080 [27] = assay: Induction of apoptosis in human HT1080 cells assessed as early apoptotic cells at 5 uM incubated for 48 hrs by flow cytometric analysis (reference value: 0.63%); assay type: functional
HT-1080 [28] = assay: Induction of apoptosis in human HT1080 cells assessed as necrotic cells at 5 uM incubated for 48 hrs by flow cytometric analysis (reference value: 0.95%); assay type: functional
[29] = system: Isocitrate dehydrogenase [NADP] cytoplasmic (Homo sapiens), O75874 [R132C]; assay: Binding affinity to IDH1 R132C mutant (unknown origin) by mass spectrometry
[30] = biological target: T3, Isocitrate dehydrogenase [NADP] cytoplasmic; assay: Inhibition of IDH1 (unknown origin) by enzymatic assay
HT-1080 [31] = assay: Induction of cell cycle arrest in human HT1080 cells assessed accumulation at G2 phase at 5 uM incubated for 24 hrs by flow cytometric analysis (reference value: 15.64%); assay type: functional
[32] = system: Isocitrate dehydrogenase [NADP] cytoplasmic (Homo sapiens), O75874 [R132C]; assay: Inhibition of IDH1 R132C mutant (unknown origin) at 30 uM by enzymatic assay
HT-1080 [33] = assay: Reduction in CDK2 protein expression in human HT1080 cells incubated for 48 hrs by Western blot analysis; assay type: functional, cell-based
HT-1080 [34] = assay: Antiproliferative activity against human HT1080 cells harboring IDH1-R132C mutation incubated for 48 hrs; assay type: functional, cell-based
HT-1080 [35] = assay: Induction of cell cycle arrest in human HT1080 cells assessed accumulation at G1 phase at 10 uM incubated for 24 hrs by flow cytometric analysis (reference value: 31.67%); assay type: functional
HT-1080 [36] = assay: Induction of apoptosis in human HT1080 cells assessed as viable cells at 5 uM incubated for 48 hrs by flow cytometric analysis (reference value: 95.9%); assay type: functional; conditions: HT-1080, 48 h, read-out: Activity
[37] = biological target: T3, Isocitrate dehydrogenase [NADP] cytoplasmic; assay: Inhibition of IDH1 (unknown origin) at 30 uM by enzymatic assay
HT-1080 [38] = assay: Induction of apoptosis in human HT1080 cells assessed as necrotic cells at 10 uM incubated for 48 hrs by flow cytometric analysis (reference value: 0.95%); assay type: functional
HT-1080 [39] = assay: Induction of apoptosis in human HT1080 cells assessed as late apoptotic cells at 5 uM incubated for 48 hrs by flow cytometric analysis (reference value: 2.48%); assay type: functional
HT-1080 [40] = assay: Reduction in CDK1 protein expression in human HT1080 cells incubated for 48 hrs by Western blot analysis; assay type: functional, cell-based
HT-1080 [41] = assay: Induction of cell cycle arrest in human HT1080 cells assessed accumulation at S phase at 5 uM incubated for 24 hrs by flow cytometric analysis (reference value: 52.69%); assay type: functional

T3 sequence (O75874 whole entry): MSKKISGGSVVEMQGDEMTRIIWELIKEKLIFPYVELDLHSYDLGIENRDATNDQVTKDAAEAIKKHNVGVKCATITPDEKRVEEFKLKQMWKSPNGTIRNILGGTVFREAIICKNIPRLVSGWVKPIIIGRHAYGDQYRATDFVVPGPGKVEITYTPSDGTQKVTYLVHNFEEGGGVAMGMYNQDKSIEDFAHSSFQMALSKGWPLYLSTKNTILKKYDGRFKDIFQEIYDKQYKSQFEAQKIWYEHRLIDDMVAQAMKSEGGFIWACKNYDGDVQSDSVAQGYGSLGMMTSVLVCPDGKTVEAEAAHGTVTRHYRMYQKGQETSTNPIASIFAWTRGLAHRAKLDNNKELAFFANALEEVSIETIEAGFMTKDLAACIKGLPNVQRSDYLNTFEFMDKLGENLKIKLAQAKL
T2 sequence (O75874 2-414 R132H limits assumed): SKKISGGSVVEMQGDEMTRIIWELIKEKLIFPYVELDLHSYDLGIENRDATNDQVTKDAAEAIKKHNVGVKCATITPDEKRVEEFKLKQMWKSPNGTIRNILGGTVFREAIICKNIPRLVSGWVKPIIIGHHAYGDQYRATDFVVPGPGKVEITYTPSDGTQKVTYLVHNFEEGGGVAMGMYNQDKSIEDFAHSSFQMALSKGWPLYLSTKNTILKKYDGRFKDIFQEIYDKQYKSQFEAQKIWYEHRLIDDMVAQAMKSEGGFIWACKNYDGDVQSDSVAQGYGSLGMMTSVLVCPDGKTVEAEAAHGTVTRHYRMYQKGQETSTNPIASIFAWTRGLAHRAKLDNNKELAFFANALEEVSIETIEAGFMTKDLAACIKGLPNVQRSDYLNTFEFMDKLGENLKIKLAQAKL
T1 sequence (O75874 2-414 R132C limits assumed): as the sequence (O75874 2-414 R132H limits assumed) above, with H131C counted along it
Sequence of Isocitrate dehydrogenase [NADP] cytoplasmic (Homo sapiens), O75874 [R132C] (O75874 whole entry R132C): as the sequence (O75874 whole entry) above, with R132C counted along it
Sequence of Isocitrate dehydrogenase [NADP] cytoplasmic (Homo sapiens), O75874 [R132H] (O75874 whole entry R132H): as the sequence (O75874 whole entry) above, with R132H counted along it

Kd [2]: 2.81 µM
Kd [8]: 12.8 µM
Kd [9]: > 50 µM
Ratio (Homo sapiens): 3
IC50 [17]: 76.9 µM
Activity [22]: inactive
IC50 [23]: 5.18 µM
Activity [29]: Active
IC50 [30]: > 100 µM
inhibition [32]: Active
IC50 (HT-1080 [34]; HT-1080, 48 h): 10.8 µM
inhibition [37]: inactive
Structure (SMILES): C=CC(C)(C)c1cc(/C=C/C(=O)c2ccc(O)cc2)c(OC)cc1O [LICOAGROCHACONE A]
inhibition (HT-1080 [1]): Dose-dependent effect
Activity (HT-1080 [3]): 26.6%
IC50 [4]: > 50 µM
Activity (HT-1080 [5]): 45.83%
inhibition (HT-1080 [6]): Dose-dependent effect
Activity (HT-1080 [7]): 54.4%
viability at 20 µM (HT-1080 [10]): 42%
inhibition (HT-1080 [11]): Dose-dependent effect
inhibition (INH) (HT-1080 [11]): >50%
Activity (HT-1080 [12]): 4.97%
Activity (HT-1080 [13]): Dose-dependent effect
Activity (HT-1080 [14]): 2.79%
Activity (HT-1080 [15]): 33.95%
viability at 10 µM (HT-1080 [16]): 64.1%
IC50 (U-87 MG): > 50 µM
Activity (HT-1080 [18]): 24.18%
Activity (HT-1080 [19]): 41.29%
Activity (HT-1080 [20]): 0.82%
Activity (HT-1080 [21]): 24.76%
inhibition (HT-1080 [24]): Dose-dependent effect
inhibition (HT-1080 [25]): Dose-dependent effect
Activity (HT-1080 [26]): 35.93%
Activity (HT-1080 [27]): 1.26%
Activity (HT-1080 [28]): 3.13%
Activity (HT-1080 [31]): 20.94%
inhibition (HT-1080 [33]): Dose-dependent effect
Activity (HT-1080 [34]): Dose-dependent effect
Activity (HT-1080 [35]): 21.99%
viability at 5 µM (HT-1080 [36]): 80.5%
Activity (HT-1080 [38]): 4.4%
Activity (HT-1080 [39]): 15.2%
inhibition (HT-1080 [40]): Dose-dependent effect
Activity (HT-1080 [41]): 43.13%
